pIC50, pKd, pKi: −log10 of the molar value. Values belong to the molecule of their own block, whether it stands above or below them.
Columns and labels:
[1] = molecular target: T1, Bifunctional dihydrofolate reductase-thymidylate synthase (Trypanosoma cruzi, UniProt Q27793); experiment: Inhibition of recombinant Trypanosoma cruzi DHFR-TS assessed as inhibition constant
Trypanothione reductase [2] = molecular target: T2, Trypanothione reductase (Trypanosoma cruzi, UniProt P28593); experiment: Inhibition of Trypanosoma cruzi TR assessed as inhibition constant
[3] = Inhibition of Trypanosoma cruzi DHODH assessed as inhibition constant measured for 5 mins by spectrophotometry
Cruzipain [4] = molecular target: T3, Cruzipain (Trypanosoma cruzi, UniProt P25779); experiment: Inhibition of Trypanosoma cruzi Cruzaine
[5] = Inhibition of Trypanosoma cruzi PTR1 using folic acid as substrate in presence of NADPH by spectrophotometry
[6] = molecular target: T1, Bifunctional dihydrofolate reductase-thymidylate synthase; experiment: Inhibition of Trypanosoma cruzi DHFR-TS in presence of NADPH by spectrophotometry
Trypanothione reductase [7] = molecular target: T2, Trypanothione reductase; experiment: Inhibition of Trypanosoma cruzi TR assessed as inhibition constant in presence of NADPH
[8] = molecular target: T4, Triosephosphate isomerase, glycosomal (Trypanosoma cruzi, UniProt P52270); experiment: Inhibition of Trypanosoma cruzi TIM expressed in Escherichia coli using glyceraldehyde 3-phosphate as substrate in presence of NADH/alphaGDPH measured after 2 hrs by spectrophotometry
[9] = molecular target: T4, Triosephosphate isomerase, glycosomal; experiment: Inhibition of Trypanosoma cruzi TIM expressed in Escherichia coli using glyceraldehyde 3-phosphate as substrate preincubated for 2 hrs in presence of NADH/alphaGDPH by spectrophotometry
[10] = molecular target: T1, Bifunctional dihydrofolate reductase-thymidylate synthase; experiment: Inhibition of Trypanosoma cruzi DHFR-TS assessed as inhibition constant using DHF as substrate in presence of NADPH by spectrophotometry
[11] = molecular target: T4, Triosephosphate isomerase, glycosomal; experiment: Inhibition of Trypanosoma cruzi TIM
[12] = molecular target: T4, Triosephosphate isomerase, glycosomal; experiment: Inhibition of recombinant Trypanosoma cruzi TIM using glyceraldehyde 3-phosphate as substrate
Cruzipain [13] = molecular target: T3, Cruzipain; experiment: Inhibition of Trypanosoma cruzi Cruzaine using Z-Phe-Arg-AMC as substrate preincubated for 15 mins measured for 10 mins by […]
Cruzipain [14] = molecular target: T3, Cruzipain; experiment: Inhibition of Cruzaine derived from epimastigotes of Trypanosoma cruzi Tul2 strain using Z-FR-AMC as substrate assessed as release of 7-amino-4-methylcoumarin by fluorimetry
[15] = molecular target: Sterol 14-alpha demethylase (Trypanosoma cruzi (strain CL Brener), UniProt Q7Z1V1); experiment: Displacement of [3H]-Eubricol from C-terminal His-tagged full-length Trypanosoma cruzi Tulahuen strain CYP51 expressed in Escherichia coli HMS174(DE3) assessed as dissociation constant preincubated for 5 mins measured after 60 mins by enzymatic assay
Sequence of Sterol 14-alpha demethylase (Q7Z1V1 whole entry): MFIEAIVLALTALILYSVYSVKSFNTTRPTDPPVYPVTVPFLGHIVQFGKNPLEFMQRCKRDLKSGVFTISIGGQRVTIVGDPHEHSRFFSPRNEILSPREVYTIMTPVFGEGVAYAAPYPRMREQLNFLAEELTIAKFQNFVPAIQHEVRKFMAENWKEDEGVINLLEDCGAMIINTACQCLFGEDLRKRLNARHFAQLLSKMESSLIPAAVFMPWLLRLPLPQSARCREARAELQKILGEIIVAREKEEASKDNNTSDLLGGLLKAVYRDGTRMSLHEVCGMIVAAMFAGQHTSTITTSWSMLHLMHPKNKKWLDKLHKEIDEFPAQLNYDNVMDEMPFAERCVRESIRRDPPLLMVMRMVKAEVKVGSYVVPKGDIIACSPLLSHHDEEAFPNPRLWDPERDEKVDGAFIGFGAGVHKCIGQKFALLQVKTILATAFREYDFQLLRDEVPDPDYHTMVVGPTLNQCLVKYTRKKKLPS

T2 sequence (P28593 whole entry): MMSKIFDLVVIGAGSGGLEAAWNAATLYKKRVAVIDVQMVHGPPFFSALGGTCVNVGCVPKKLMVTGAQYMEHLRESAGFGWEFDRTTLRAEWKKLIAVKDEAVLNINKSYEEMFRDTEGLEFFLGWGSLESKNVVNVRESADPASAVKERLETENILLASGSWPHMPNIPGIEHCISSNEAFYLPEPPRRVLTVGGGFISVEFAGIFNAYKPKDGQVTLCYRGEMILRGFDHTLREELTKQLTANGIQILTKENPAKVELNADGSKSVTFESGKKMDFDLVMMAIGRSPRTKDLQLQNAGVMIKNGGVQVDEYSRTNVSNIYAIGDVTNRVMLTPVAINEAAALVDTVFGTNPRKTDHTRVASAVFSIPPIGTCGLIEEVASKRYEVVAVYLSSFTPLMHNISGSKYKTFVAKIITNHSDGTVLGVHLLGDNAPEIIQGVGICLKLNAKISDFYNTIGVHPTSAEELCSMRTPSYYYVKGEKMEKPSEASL
T3 sequence (P25779 whole entry): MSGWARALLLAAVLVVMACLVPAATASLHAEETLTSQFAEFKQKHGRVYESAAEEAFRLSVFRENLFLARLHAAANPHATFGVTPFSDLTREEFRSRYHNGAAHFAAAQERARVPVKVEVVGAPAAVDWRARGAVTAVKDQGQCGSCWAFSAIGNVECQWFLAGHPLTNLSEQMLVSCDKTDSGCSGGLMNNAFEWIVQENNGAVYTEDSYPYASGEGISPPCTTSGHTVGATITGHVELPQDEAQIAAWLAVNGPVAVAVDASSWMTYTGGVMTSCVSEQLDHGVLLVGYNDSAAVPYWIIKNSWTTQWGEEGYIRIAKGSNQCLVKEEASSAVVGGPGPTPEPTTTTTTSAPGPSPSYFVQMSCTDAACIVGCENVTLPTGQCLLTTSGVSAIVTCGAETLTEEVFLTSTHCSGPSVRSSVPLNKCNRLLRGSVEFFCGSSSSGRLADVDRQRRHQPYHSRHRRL
T4 sequence (P52270 whole entry): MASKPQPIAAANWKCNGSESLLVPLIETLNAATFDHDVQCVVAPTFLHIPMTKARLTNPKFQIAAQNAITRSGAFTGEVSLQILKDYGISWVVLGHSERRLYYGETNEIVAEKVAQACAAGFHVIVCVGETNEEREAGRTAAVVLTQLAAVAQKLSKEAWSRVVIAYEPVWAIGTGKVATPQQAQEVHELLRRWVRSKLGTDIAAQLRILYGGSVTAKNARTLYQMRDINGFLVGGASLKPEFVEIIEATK
T1 sequence (Q27793 whole entry): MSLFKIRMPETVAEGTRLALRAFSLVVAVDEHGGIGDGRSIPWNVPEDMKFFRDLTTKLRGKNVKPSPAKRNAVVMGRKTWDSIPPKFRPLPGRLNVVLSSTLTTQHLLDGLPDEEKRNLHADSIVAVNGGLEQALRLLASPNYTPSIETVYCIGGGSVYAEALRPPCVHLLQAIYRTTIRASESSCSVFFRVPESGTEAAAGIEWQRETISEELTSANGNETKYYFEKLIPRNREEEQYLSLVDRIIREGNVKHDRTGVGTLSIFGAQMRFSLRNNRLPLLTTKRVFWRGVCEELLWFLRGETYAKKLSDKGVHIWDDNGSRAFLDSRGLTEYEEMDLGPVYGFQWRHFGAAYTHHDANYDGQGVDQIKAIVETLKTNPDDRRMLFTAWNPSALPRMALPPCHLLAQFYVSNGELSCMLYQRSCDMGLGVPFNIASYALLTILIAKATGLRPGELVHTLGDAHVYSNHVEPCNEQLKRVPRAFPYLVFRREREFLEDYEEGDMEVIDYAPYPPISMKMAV

Structure (SMILES): c1ccc(-c2sc(C3(N4CCCC4)CCCCC3)cc2-c2ccc3cc[nH]c3c2)cc1
pKi (Trypanothione reductase [2]): 5.00

Structure (SMILES): CN(Cc1cnc2nc(N)nc(N)c2n1)c1ccc(C(=O)N[C@@H](CCC(=O)O)C(=O)O)cc1 [METHOTREXATE]
pIC50 [5]: 10.42
pIC50 [6]: 6.96

Structure (SMILES): CCOC(=O)/C=C/C(=O)[C@H](CC(C)C)NC(=O)[C@@H](CC(=O)c1ccccc1)Cc1ccccc1
pIC50 (Cruzipain [4]): 4.70

Structure (SMILES): [O-][NH+]1c2ccc(O)cc2[NH+]([O-])c2cc(Cl)c(Cl)cc21 (configuration not stated)
pIC50 [9]: 4.59

Structure (SMILES): CC(C)CC(=O)c1ccc2c(c1)[n+]([O-])c(C(=O)C(C)C)c(C(F)(F)F)[n+]2[O-]
pKi (Trypanothione reductase [2]): 4.72

Structure (SMILES): O=C(/C=C/C=C/c1ccco1)/C=C/C=C/c1ccco1
pIC50 [11]: 5.52

Structure (SMILES): O=C1/C(=C/C=C/c2ccco2)CCC/C1=C\C=C\c1ccco1
pIC50 (Cruzipain [13]): 4.43

Structure (SMILES): CN1CCN(CCn2ccc3cc(-c4ncc(C5(N6CCCC6)CCCCC5)s4)ccc32)CC1
pKi (Trypanothione reductase [2]): 5.42

Structure (SMILES): OC(Cn1cnnn1)(c1ccc(F)cc1F)C(F)(F)c1ccc(-c2ccc(OCC(F)(F)F)cn2)cn1 (configuration not stated)
pKd [15]: 7.62

Results, then the molecule that gave them:

pKi [1]: 7.64
Structure (SMILES): CC(C)Oc1cccc(Cc2cnc(N)nc2N)c1

pKi [1]: 7.52
Structure (SMILES): Nc1ncc(Cc2ccc(Oc3ccccc3)cc2)c(N)n1

pKi [3]: 7.70
Structure (SMILES): O=C1NC(=O)C(CCc2ccc3cc(C(=O)O)ccc3c2)C(C(=O)O)N1 (configuration not stated)

pIC50 (Cruzipain [4]): 6.22
Structure (SMILES): COc1ccc(NC(=O)COC(=O)C(CC(C)C)N2C(=O)C(Cl)=C(Cl)C2=O)cc1 (configuration not stated)

pKi (Trypanothione reductase [7]): 5.22
Structure (SMILES): Cc1ccc(C)c(OC2=CC(=O)c3ccncc3C2=O)c1

pIC50 [8]: 4.96
Structure (SMILES): COc1ccc(-c2c/c(=[S+]/CC(C)=O)ss2)cc1

pKi (Trypanothione reductase [7]): 5.96
Structure (SMILES): O=C1C(Br)=C(Oc2ccc3ccccc3c2)C(=O)c2ccccc21

pKi [10]: 8.18
Structure (SMILES): COc1cc(NCc2ccc3nc(N)ncc3c2C)cc(OC)c1OC

pIC50 [11]: 5.52
Structure (SMILES): O=C(CSc1nc2ccccc2[nH]1)Nc1ncc([N+](=O)[O-])s1

pIC50 [12]: 5.10
Structure (SMILES): Cc1ccc2nc(-c3ccc4nc(-c5ccc(N)cc5)sc4c3)sc2c1S(=O)(=O)O

pIC50 [12]: 4.48
Structure (SMILES): O=S(=O)(O)CCCSc1nc2ccccc2s1

pIC50 (Cruzipain [14]): 4.52
Structure (SMILES): CC(C)CC(NC(=O)c1ccc(-c2ccccc2)o1)C(=O)NC1(C#N)CC1 (configuration not stated)

Reference: ChEMBL document CHEMBL5137001, “Examination of multiple Trypanosoma cruzi targets in a new drug discovery approach for Chagas disease” (Bioorg Med Chem, 2022)
